Laboratory results taken from patent US9554979B2, “Hair care compositions and methods of use” (The Procter & Gamble Company, priority 2011, dated 2017).

Assay: Apigenin premixtures with various solubilizing agents, solubility
Format: physicochemical
Details: organic solvent or mixture, thermodynamic from solid
Description: According to another embodiment of the invention, a process for preparing a hair care composition includes mixing apigenin and a solubilizing agent at a temperature sufficient to allow dissolution of the apigenin in the solubilizing agent to form a premixture; combining the premixture with an aqueous carrier to form the hair care composition; and optionally, adjusting the pH of the hair care composition with acid to within a range from about 3 to about 10. The premixture is prepared by combining apigenin and one or more solubilizing agents. Solubilization energy (e.g., stiffing, sonication, milling, heat, etc.) may be applied to accelerate the dissolution process. For example, a premixture of apigenin in triethanolamine may be prepared by combining apigenin and triethanolamine in a single vessel and heating the mixture to 70° C. while stirring until a clear solution results. According to one aspect of the exemplary method of making the premixture, the combined apigenin and triethanolamine are mixed at 50-100 rpm using a IKA RET CV-S1 mixer. According to another aspect, the combination is mixed at 300-500 rpm using a IKA Eurostar PWR CV-S1 mixer.

O=c1cc(-c2ccc(O)cc2)oc2cc(O)cc(O)c12 [apigenin, 5,7-dihydroxy-2-(4-hydroxyphenyl)-4H-1-benzopyran-4-one]
solubility (1-Dimethylamino-2-propanol solution, in 1-Dimethylamino-2-propanol solution, room temp, 300 rpm): 20.2 mg/mL
solubility (1-dimethylamino-2-propanol, in 1-Dimethylamino-2-propanol solution, room temp, 1500 sm): 20 mg/mL
solubility (1-dimethylamino-2-propanol/TEA, in 1-Dimethylamino-2-propanol/TEA, room temp, 300-810 rpm): 17.3 mg/mL
solubility (1-dimethylamino-2-propanol/ethanolamine, in 1-Dimethylamino-2-propanol/Ethanolamine, room temp, 300 rpm): 16.6 mg/mL
solubility (1-dimethylamino-2-propanol/ethanolamine/TEA, in 1-Dimethylamino-2-propanol/Ethanolamine/TEA, room temp, 300-500 rpm): 16.5 mg/mL
solubility (1-dimethylamino-2-propanol/ethylenediamine, in 1-Dimethylamino-2-propanol/Ethylenediamine, room temp, 400-600 rpm): 20.1 mg/mL
solubility (1-methylimidazole, 82 °C, in 1-Methylimidazole, 100 rpm): 20.4 mg/mL
solubility (2-amino-2-methyl-1-propanol, 71 °C, in 2-amino-2-methyl-1-propanol, 400 rpm): 20 mg/mL
solubility (2-amino-2-methyl-1-propanol, 71 °C, in 2-amino-2-methyl-1-propanol, 450 rpm): 14.8 mg/mL
solubility (2-dimethylaminoethanol, 29 °C, in 2-Dimethylaminoethanol, 300 rpm): 19.9 mg/mL
solubility (2-dimethylaminoethanol, in 2-Dimethylaminoethanol, room temp, 300 rpm): 20.2 mg/mL
solubility (Dimethyl capramide, in Dimethyl capramide, Room temp, 400 rpm): 16 mg/mL
solubility (N-methylformamide, 101 °C, in N-Methylformamide, 400 rpm): 13.7 mg/mL
solubility (TEA (triethanolamine), 169 °C, in TEA, 450 rpm (synthetic apigenin)): 14.7 mg/mL
solubility (TEA (triethanolamine), in TEA, room temp, 450-590 rpm): 20 mg/mL
solubility (TEA/1-Dimethylamino-2-propanol, in TEA/1-Dimethylamino-2-propanol, room temp, 350-450 rpm): 17 mg/mL
solubility (TEA/1-Dimethylamino-2-propanol/Ethylenediamine, in TEA/1-Dimethylamino-2-propanol/Ethylenediamine, room temp, 330-600 rpm): 20.6 mg/mL
solubility (TEA/2-Dimethylaminoethanol/1-Dimethylamino-2-propanol, in TEA/2-Dimethylaminoethanol/1-Dimethylamino-2-propanol, room temp, 330-400, 1500 sm): 15 mg/mL
solubility (TEA/2-Dimethylaminoethanol/1-Dimethylamino-2-propanol, in TEA/2-Dimethylaminoethanol/1-Dimethylamino-2-propanol, room temp, 1500 sm): 15 mg/mL
solubility (Triethylene glycol, 156 °C, in Triethylene glycol, 300 rpm): 6.11 mg/mL
solubility (diethanolamine, 128 °C, in Diethanolamine, 550 rpm): 20.2 mg/mL
solubility (ethanolamine, 29 °C, in Ethanolamine, 350-500 rpm): 20.1 mg/mL
solubility (ethanolamine, 76 °C, in Ethanolamine, 300 rpm): 20.3 mg/mL
solubility (ethanolamine, 76 °C, in Ethanolamine, 400 rpm (synthetic apigenin)): 20.2 mg/mL
solubility (ethanolamine, in Ethanolamine, room temp, 350-740 rpm): 20.2 mg/mL
solubility (ethanolamine/TEA, 29 °C, in Ethanolamine/TEA, 300-600 rpm): 18 mg/mL
solubility (ethanolamine/TEA, in Ethanolamine/TEA, room temp, 350-500 rpm): 16 mg/mL
solubility (ethylenediamine, 28 °C, in Ethylenediamine, 320 rpm): 20 mg/mL
solubility (ethylenediamine, in Ethylenediamine, room temp, 320 rpm): 20.2 mg/mL
solubility (laurocapram, 98%, 140 °C, in Laurocapram, 500-600 rpm): 14 mg/mL
solubility (laurocapram, 98%, in Laurocapram, room temp, 500-600 rpm): 13.9 mg/mL
solubility (pyridine, in Pyridine, room temp, 300 rpm): 15.8 mg/mL
